# Source: patent publication US20140154251A1, “ANTI C-MET ANTIBODY AND USES THEREOF” (Samsung Electronics Co., Ltd., priority 2011, published 2014)
# Legend:
# [1] = system: MHCC97H (human liver cancer cell line); assay: MHCC97H liver cancer xenograft model; assay type: in vivo, BALB/C nude mouse; conditions: 30 mg/kg p.o., q.d. x 4 weeks
# Protocol: The antitumor activity of huAbF46-H4-A1(IgG2 Fc) was evaluated in a BALB/C nude mouse MHCC97H (human liver cancer cell line) xenograft model (referring to Example 16.2). Approximately 3 million MHCC97H cells in 100 μL of serum-free media were injected via s.c. to each of the 140 mice under anesthesia by 1-2% isoflurane. Ten days after subcutaneous inoculation with MHCC97H tumor cells, dosing commenced in the following treatment groups: 0 (PBS vehicle), 0.2, 1, 5 or 10 mg/kg huAbF46-H4-A1 (IgG2 Fc) i.v., q.w.×4 weeks; 30 mg/kg sorafenib p.o., q.d.×4 weeks (positive control). Each group consisted of 15 mice. Tumor volumes and body weights were measured two to three times a week for total study period about 4 weeks. The tumor volume (V) was calculated as follows: V (mm^3)={long axis length (mm)×(short axis length (mm))^2}/2.
# [2] = system: Akt; assay: Akt phosphorylation in Caki-1 cells (phospho-AKT1 Ser473 ELISA); assay type: cell-based; conditions: 5 ug/ml, 30 minutes (FIG. 8B)
# Protocol: (§1) To compare agonism of the 4 types of antibodies having improved affinities, as prepared in Example 5, Caki-1 cells (Korean Cell Line Bank) were used to confirm the degree of Akt phosphorylation. Mouse IgG was used as a negative control, and antibody 5D5 (a known agonist) was used as a positive control.
# (§2) 2×10^5 cells/ml of Caki-1 cells were introduced to a 96-well plate, and after 24 hours, each of 5 ug/ml of the antibodies was treated in serum free medium for 30 minutes. Lysis of the cells treated with the antibodies was performed and the degree of Akt phosphorylation was measured using a PathScan phospho-AKT1 (Ser473) chemiluminescent Sandwich ELISA kit (Cell Signaling, cat. no #7134S).
# as §1, with “3” for “4”, “11,” for “5,”, “and a 5D5” for “and”, “antibody” for “antibody 5D5”
# as §2, with “with” for “with the”, “and a” for “and the”, “phosphorylation inhibition” for “phosphorylation”, “(Ser473) a” for “(Ser473)”
Molecule,tumor growth (in words) [1],activity of Akt phosphorylation inhibition compared to huAbF46-H4-A1(IgG2 Fc) [2]
"CNC(=O)c1cc(Oc2ccc(NC(=O)Nc3ccc(Cl)c(C(F)(F)F)c3)cc2)ccn1 [sorafenib, reference compound]",significant inhibition,–
L3-11Y: heavy chain of huAbF46-H4-A1 (IgG2 Fc) with light chain SEQ ID NO: 73 (serine 27e replaced with tryptophan) (antibody) heavy: EVQLVESGGGLVQPGGSLRLSCAASGFTFTDYYMSWVRQAPGKGLEWLGFIRNKANGYTTEYSASVKGRFTISRDNSKNTLYLQMNSLRAEDTAVYYCARDNWFAYWGQGTLVTVSSASTKGPSVFPLAPCSRSTSESTAALGCLVKDYFPEPVTVSWNSGALTSGVHTFPAVLQSSGLYSLSSVVTVPSSNFGTQTYTCNVDHKPSNTKVDKTVERKCCVECPPCPAPPVAGPSVFLFPPKPKDTLMISRTPEVTCVVVDVSHEDPEVQFNWYVDGVEVHNAKTKPREEQFNSTFRVVSVLTVVHQDWLNGKEYKCKVSNKGLPAPIEKTISKTKGQPREPQVYTLPPSREEMTKNQVSLTCLVKGFYPSDIAVEWESNGQPENNYKTTPPMLDSDGSFFLYSKLTVDKSRWQQGNVFSCSVMHEALHNHYTQKSLSLSPGK light: DIQMTQSPSSLSASVGDRVTITCKSSQSLLAWGNQNNYLAWYQQKPGKAPKMLIIWASTRVSGVPSRFSGSGSGTDFTLTISSLQPEDFATYYCQQSYSRPYTFGQGTKVEIKRTVAAPSVFIFPPSDEQLKSGTASVVCLLNNFYPREAKVQWKVDNALQSGNSQESVTEQDSKDSTYSLSSTLTLSKADYEKHKVYACEVTHQGLSSPVTKSFNRGEC,–,equal or higher activity of Akt phosphorylation inhibition
